Patent US8158656B2, “2-indolinone derivatives as multi-target protein kinase inhibitors and histone deacetylase inhibitors” (Shenzhen Chipscreen Biosciences Ltd., priority 2008, dated 2012)

Experiments:
[1] = tested on: Class I HDAC; experiment: P21 reporter assay in HeLa cells; assay type: cell-based, human; details: relative to CS055 at 3 μM
Procedure: (§1) HDAC subtype selectivity inhibition assay of tested compounds was carried out by several reporter gene assays experiments. Briefly, HeLa cells were seeded in 96-well plates the day before transfection to give a confluence of 50-80%. Cells were transfected with one of reporter gene plasmid containing a promoter sequence or response element upstream of a luciferase gene construct using FuGene6 transfection reagent according to the manufacturer's instruction (Roche). The promoters or response elements including p21-promoter, gdf11-promoter, MEF-binding element (MEF2), Nur77-promoter were fused upstream to the luciferase gene reporter construct. For normalizing the transfection efficiency, a GFP expression plasmid was cotransfected. Cells were allowed to express protein for 24 hours followed by addition of individual compounds or the vehicle (DMSO). 24 hours later the cells were harvested, and the luciferase assay and GFP assay were performed using corresponding assay kits according to the manufacturer's instructions (Promega).

[2] = tested on: HDAC4/5; experiment: MEF2 reporter assay in HeLa cells; assay type: cell-based, human; details: relative to CS055 at 3 μM
Procedure: as §1

[3] = molecular target: T1, HDAC7 (Homo sapiens, UniProt Q8WUI4); experiment: Nur77 reporter assay in HeLa cells; assay type: cell-based; details: relative to CS055 at 3 μM
T1 construct: endogenous in cells; host or cells: HeLa
T1 sequence (Q8WUI4 1-952): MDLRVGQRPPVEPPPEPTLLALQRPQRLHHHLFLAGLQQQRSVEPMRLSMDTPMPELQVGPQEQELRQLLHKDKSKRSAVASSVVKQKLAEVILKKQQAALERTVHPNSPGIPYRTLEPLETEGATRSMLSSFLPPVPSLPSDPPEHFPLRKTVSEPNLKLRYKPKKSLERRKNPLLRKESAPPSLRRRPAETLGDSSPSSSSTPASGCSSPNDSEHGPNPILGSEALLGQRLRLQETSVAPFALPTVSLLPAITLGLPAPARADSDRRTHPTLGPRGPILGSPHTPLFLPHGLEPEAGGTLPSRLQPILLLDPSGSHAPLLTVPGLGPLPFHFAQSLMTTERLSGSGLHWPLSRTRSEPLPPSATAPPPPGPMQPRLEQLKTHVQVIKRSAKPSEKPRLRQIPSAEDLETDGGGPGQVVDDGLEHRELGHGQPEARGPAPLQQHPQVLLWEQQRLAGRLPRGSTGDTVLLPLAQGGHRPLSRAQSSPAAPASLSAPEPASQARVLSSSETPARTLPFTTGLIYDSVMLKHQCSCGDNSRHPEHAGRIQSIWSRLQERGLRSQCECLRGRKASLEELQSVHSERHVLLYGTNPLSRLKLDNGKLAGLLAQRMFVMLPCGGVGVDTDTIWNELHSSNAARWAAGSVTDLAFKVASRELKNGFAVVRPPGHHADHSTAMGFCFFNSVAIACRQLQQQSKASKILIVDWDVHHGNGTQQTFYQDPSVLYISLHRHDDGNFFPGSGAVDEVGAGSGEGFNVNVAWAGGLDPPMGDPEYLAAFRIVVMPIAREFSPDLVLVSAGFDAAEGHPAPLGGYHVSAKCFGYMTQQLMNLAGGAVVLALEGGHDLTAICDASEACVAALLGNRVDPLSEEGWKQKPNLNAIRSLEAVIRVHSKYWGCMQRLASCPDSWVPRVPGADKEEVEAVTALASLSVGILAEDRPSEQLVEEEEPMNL
Procedure: as §1

[4] = molecular target: T2, HDAC3 (Homo sapiens, UniProt O15379); experiment: GDF11 reporter assay in HeLa cells; assay type: cell-based; details: relative to CS055 at 3 μM
T2 construct: endogenous in cells; host or cells: HeLa
T2 sequence (O15379 whole entry): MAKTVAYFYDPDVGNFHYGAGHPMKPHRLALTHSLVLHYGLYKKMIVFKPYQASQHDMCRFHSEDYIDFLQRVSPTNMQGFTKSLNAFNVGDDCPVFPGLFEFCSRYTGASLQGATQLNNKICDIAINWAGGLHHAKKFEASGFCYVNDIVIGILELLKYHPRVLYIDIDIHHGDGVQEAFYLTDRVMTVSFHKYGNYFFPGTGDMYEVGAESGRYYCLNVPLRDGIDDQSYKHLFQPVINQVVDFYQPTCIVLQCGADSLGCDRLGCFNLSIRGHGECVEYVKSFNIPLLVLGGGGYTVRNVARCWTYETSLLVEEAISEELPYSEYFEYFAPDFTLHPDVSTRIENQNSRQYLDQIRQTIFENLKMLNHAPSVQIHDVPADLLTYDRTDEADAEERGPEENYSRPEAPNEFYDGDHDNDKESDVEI
T2 sequence (Q9Y618 whole entry partner): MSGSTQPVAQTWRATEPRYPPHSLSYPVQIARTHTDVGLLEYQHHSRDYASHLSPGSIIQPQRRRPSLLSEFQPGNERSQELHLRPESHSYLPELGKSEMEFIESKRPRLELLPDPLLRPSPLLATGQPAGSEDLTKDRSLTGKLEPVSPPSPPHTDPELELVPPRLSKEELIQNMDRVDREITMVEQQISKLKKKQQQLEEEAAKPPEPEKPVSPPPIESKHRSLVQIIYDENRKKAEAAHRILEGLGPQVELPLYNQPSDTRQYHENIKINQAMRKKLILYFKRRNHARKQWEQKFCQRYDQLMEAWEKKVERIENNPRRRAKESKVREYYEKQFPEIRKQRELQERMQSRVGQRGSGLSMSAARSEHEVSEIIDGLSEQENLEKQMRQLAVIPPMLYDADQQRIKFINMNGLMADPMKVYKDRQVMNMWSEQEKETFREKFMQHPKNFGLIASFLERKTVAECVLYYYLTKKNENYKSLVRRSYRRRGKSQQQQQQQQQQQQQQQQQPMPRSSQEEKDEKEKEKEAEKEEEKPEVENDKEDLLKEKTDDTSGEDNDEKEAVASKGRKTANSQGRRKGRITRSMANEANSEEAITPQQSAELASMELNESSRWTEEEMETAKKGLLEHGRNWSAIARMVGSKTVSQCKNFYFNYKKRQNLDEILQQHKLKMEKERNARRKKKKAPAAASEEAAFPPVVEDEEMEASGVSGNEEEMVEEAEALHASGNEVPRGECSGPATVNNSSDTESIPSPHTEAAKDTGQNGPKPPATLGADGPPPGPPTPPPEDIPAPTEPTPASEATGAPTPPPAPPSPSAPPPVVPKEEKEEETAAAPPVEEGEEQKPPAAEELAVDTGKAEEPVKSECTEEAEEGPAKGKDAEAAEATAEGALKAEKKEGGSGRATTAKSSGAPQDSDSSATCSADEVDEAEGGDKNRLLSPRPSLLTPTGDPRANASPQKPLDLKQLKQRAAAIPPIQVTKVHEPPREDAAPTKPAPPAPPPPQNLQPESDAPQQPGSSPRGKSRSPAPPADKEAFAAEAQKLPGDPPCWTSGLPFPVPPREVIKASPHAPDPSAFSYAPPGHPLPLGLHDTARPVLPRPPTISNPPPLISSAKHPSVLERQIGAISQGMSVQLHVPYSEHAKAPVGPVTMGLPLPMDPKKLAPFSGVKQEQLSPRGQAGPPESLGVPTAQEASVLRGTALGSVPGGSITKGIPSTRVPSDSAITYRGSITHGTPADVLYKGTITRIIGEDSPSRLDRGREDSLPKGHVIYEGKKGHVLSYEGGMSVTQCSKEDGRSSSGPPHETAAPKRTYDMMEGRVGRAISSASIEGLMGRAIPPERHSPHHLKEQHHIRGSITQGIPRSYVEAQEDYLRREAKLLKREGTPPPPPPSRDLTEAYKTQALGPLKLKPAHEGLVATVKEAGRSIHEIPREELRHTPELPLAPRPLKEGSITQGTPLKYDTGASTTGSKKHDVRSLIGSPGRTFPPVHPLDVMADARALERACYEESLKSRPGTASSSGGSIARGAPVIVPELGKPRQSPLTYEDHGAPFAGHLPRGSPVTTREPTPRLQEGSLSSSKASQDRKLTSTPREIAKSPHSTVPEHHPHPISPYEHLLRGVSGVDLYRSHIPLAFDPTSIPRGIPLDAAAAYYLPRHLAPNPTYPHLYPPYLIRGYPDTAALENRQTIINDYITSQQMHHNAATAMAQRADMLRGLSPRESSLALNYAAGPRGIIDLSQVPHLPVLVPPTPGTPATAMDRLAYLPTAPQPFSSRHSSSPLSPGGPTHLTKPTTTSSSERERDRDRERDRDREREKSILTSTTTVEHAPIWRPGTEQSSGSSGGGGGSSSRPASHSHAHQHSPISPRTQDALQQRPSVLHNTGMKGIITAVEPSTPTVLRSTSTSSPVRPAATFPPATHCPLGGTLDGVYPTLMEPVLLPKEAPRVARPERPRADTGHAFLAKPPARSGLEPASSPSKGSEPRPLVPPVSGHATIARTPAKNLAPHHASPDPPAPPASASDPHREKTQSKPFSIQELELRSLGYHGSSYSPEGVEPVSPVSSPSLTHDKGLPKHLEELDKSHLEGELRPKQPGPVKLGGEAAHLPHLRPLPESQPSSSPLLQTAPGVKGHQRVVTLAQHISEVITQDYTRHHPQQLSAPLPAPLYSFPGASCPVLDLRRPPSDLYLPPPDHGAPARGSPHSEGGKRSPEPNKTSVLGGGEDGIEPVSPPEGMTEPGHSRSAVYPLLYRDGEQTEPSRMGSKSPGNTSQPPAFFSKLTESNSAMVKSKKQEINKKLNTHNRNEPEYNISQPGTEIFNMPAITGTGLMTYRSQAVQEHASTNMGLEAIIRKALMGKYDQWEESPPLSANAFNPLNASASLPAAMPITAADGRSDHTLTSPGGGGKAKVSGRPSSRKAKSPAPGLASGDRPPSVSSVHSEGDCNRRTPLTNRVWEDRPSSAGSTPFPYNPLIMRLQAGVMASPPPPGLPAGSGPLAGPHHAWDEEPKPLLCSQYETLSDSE
Procedure: as §1

[5] = tested on: MCF7; experiment: Tumor cell proliferation (MTS), MCF7; assay type: cell-based; details: Homo sapiens, MCF7, 72 hours
Procedure: (§2) Measurement of in vivo cell proliferation:
(§3) Tumor cells were trypsinized and plated into 96-well plates at 3,000 per well and incubated in complete medium with 10% FBS for 24 hours. Compounds were added over a final concentration range of 100 μmol/L to 100 nmol/L in 0.1% DMSO and incubated for 72 hours in complete medium. The effects on proliferation were determined by addition of MTS reagent (Promega) according to the instruction, incubation for 2 hours at 37° C. in CO2 incubator, and record the absorbance at 490 nm using an ELISA plate reader.

[6] = tested on: Raji; experiment: Tumor cell proliferation (MTS), Raji; assay type: cell-based; details: Homo sapiens, 72 hours
Procedure: as §2, §3

[7] = tested on: HCT-8; experiment: Tumor cell proliferation (MTS), HCT-8; assay type: cell-based; details: Homo sapiens, HCT-8, 72 hours
Procedure: as §2, §3

[8] = tested on: A549; experiment: Tumor cell proliferation (MTS), A549; assay type: cell-based; details: Homo sapiens, A549, 72 hours
Procedure: as §2, §3

[9] = tested on: Hut-78; experiment: Tumor cell proliferation (MTS), Hut-78; assay type: cell-based; details: Homo sapiens, HuT78, Hut-78, 72 hours
Procedure: as §2, §3

[10] = tested on: Jurkat; experiment: Tumor cell proliferation (MTS), Jurkat; assay type: cell-based; details: Homo sapiens, 72 hours
Procedure: as §2, §3

[11] = tested on: HeLa; experiment: Tumor cell proliferation (MTS), HeLa; assay type: cell-based; details: Homo sapiens, 72 hours
Procedure: as §2, §3

[12] = tested on: Bel-7402; experiment: Tumor cell proliferation (MTS), Bel-7402; assay type: cell-based; details: Homo sapiens, Bel-7402, 72 hours
Procedure: as §2, §3

[13] = tested on: Ramos; experiment: Tumor cell proliferation (MTS), Ramos; assay type: cell-based; details: Homo sapiens, 72 hours
Procedure: as §2, §3

[14] = tested on: U937; experiment: Tumor cell proliferation (MTS), U937; assay type: cell-based; details: Homo sapiens, U-937, U937, 72 hours
Procedure: as §2, §3

[15] = tested on: HL60; experiment: Tumor cell proliferation (MTS), HL60; assay type: cell-based; details: Homo sapiens, HL-60, HL60, 72 hours
Procedure: as §2, §3

[16] = tested on: MDA-MB-231; experiment: Tumor cell proliferation (MTS), MDA-MB-231; assay type: cell-based; details: Homo sapiens, MDA-MB-231, 72 hours
Procedure: as §2, §3

Q: Which “Class I HDAC (P21 reporter assay) % Max Resp of CS055 at 3 μM” value [1] does the source give for `O=C(CCCCCCC(=O)Nc1ccccc1)NO` [SAHA, suberoylanilide hydroxamic acid, reference compound] here?
A: 304.1%

Q: What about the “HDAC4/5 (MEF2 reporter assay) % Max Resp of CS055 at 3 μM” value [2] of the same compound?
A: 427.3%

Q: What about the “HDAC7 (Nur77 reporter assay) % Max Resp of CS055 at 3 μM” value [3] of the same compound?
A: 514.9%

Q: And the “HDAC3 (GDF11 reporter assay) % Max Resp of CS055 at 3 μM” value [4]?
A: 317.9%

Q: What does the source list for `CNC(=O)c1cc(Oc2ccc(NC(=O)Nc3ccc(Cl)c(C(F)(F)F)c3)cc2)ccn1` [Sorafinib, reference compound]?
A: GI50 [5]: 9.51 µM; GI50 [6]: 4.15 µM; GI50 [7]: 5.35 µM; GI50 [8]: 13.8 µM; GI50 [9]: 12.5 µM; GI50 [10]: 16.9 µM; GI50 [11]: 30.8 µM; GI50 [12]: 9.73 µM; GI50 [13]: 1.51 µM; GI50 [14]: 4.06 µM; GI50 [15]: 1.28 µM; GI50 [16]: 4.25 µM

Q: Which results are given for `CCN(CC)CCNC(=O)c1c(C)[nH]c(/C=C2\C(=O)Nc3ccc(F)cc32)c1C` [Sutent, reference compound]?
A: GI50 [5]: 7.55 µM; GI50 [6]: 5.47 µM; GI50 [7]: 12.2 µM; GI50 [8]: 14.7 µM; GI50 [9]: 4.06 µM; GI50 [10]: 7.05 µM; GI50 [11]: 9.29 µM; GI50 [12]: 13.1 µM; GI50 [13]: 12 µM; GI50 [14]: 8.28 µM; GI50 [15]: 1.73 µM; GI50 [16]: 4.66 µM
